Earlier results on 2 compounds are cited in patent US20090163599A1, “Mif adsorbant” (priority 2004, published 2009).

This data set concerns the target T1, dopachrome tautomerase activity of MIF (Homo sapiens, UniProt P14174).
T1 sequence (P14174 2-115 limits assumed): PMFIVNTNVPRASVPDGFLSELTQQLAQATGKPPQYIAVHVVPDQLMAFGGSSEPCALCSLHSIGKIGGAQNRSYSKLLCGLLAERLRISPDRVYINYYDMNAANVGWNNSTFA
Conditions: known from Swope et al, J Biol Chem 273: 14877-14884, 1998.

For the compound `CCCCCCS` [hexane thiol], the “inhibiting effect on the dopachrome tautomerase activity of MIF” value is “strong inhibiting effect”.
Consider `CCCCCCSC[C@H](NC(=O)CC[C@H](N)C(=O)O)C(=O)NCC(=O)O` [S-hexylglutathione], for which the “inhibiting effect on the dopachrome tautomerase activity of MIF” value was “strong inhibiting effect”.
